From ChEMBL document CHEMBL4219063, “New photodynamic molecular beacons (PMB) as potential cancer-targeted agents in PDT” (Bioorg Med Chem, 2018) come the findings set out here.

Calls of active or inactive are those of the source. The rule behind the calls is not given here. Square brackets hold non-standard residues; d marks the D form. Peptide text beside a SMILES is read from it. * marks the point of attachment. ξ: configuration not given here. Benzoyl(4-TriPhPorphyrinyl) = O=C(c1ccc(-c2c3nc(c(-c4ccccc4)c4ccc([nH]4)c(-c4ccccc4)c4nc(c(-c5ccccc5)c5ccc2[nH]5)C=C4)C=C3)cc1)*; Pyropheophorbide(a) = C=Cc1c(C)c2cc3nc(c4c5[nH]c(cc6nc(cc1[nH]2)C(C)=C6CC)c(C)c5C(=O)C4)[C@@H](CCC(=O)*)[C@@H]3C; X2 = COc1cc(/N=N/c2cc3c4c(c2OCCCCCC(=O)*)CCCN4CCC3)c(OC)cc1/N=N/c1ccc([N+](=O)[O-])cc1; X1 = CCN(CC)c1ccc2nc3ccc(/N=N/c4ccc(N(C)CCCC(=O)*)cc4)cc3[n+](-c3ccccc3)c2c1; ξThr(3R) = C[C@@H](O)C(N)C(=O)O; AEEA = NCCOCCOCC(=O)O

Data set [1] addresses MMP2 (Homo sapiens, UniProt P08253). The data set is described as follows: Substrate activity at MMP2 (unknown origin) assessed as enzyme-mediated substrate hydrolysis at 100 umol/L after 8 hrs by UV-HPLC method relative to control. The note with it: read-out: Drug metabolism. The data set is classed as ADME.
For data set [2], the target named is MMP14 (Homo sapiens, UniProt P50281). Kind of data set: Substrate activity at MMP14 (unknown origin) assessed as enzyme-mediated substrate hydrolysis at 100 umol/L after 8 hrs by UV-HPLC method relative to control. The data set is classed as ADME. The note with it: read-out: Drug metabolism.
The nature of data set [3]: In vitro photodynamic activity in ethanol assessed as fluorescence quenching by time-correlated single photon counting method. The data set is classed as functional.
Data set [4] can be described thus: In vitro photodynamic activity in ethanol assessed as decrease in singlet oxygen production by spectrophotometry. The data set is classed as functional. Also on record: scale not given: the % may be the effect or the level left.
The target of data set [5] is MMP9 (Homo sapiens, UniProt P14780). The data set is described as follows: Substrate activity at MMP9 (unknown origin) assessed as enzyme-mediated substrate hydrolysis at 100 umol/L after 8 hrs by UV-HPLC method relative to control. The data set is classed as ADME. The note with it: read-out: Drug metabolism.
MMP9, sequence (P14780 whole entry): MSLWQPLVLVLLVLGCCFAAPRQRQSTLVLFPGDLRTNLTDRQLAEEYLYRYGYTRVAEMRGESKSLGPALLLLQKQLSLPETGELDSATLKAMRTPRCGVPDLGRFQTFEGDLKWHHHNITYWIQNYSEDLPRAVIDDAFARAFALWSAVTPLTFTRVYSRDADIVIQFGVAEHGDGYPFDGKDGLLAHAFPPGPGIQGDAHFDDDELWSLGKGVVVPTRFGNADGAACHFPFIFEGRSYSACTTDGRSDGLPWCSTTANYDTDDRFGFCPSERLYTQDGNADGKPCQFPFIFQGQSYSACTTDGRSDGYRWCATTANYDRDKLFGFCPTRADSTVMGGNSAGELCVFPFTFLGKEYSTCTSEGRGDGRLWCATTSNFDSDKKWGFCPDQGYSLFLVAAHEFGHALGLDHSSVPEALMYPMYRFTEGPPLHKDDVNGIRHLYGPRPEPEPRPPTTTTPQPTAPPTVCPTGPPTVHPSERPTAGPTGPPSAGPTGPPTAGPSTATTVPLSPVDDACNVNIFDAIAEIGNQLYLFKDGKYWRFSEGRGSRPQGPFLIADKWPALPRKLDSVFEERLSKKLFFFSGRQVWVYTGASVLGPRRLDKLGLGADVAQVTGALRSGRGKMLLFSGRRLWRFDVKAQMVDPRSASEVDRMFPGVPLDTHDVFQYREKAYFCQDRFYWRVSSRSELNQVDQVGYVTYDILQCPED
The target of data set [6] is Matrix metalloproteinase-14 (Mus musculus) (UniProt P53690). The data set is described as follows: Substrate activity at MT1-MMP in mouse B16F1 cells assessed as enzyme-mediated substrate cleavage at 100 uM after 24 hrs by HPLC analysis. It is filed as cell-based.

MMP2, sequence (P08253 whole entry): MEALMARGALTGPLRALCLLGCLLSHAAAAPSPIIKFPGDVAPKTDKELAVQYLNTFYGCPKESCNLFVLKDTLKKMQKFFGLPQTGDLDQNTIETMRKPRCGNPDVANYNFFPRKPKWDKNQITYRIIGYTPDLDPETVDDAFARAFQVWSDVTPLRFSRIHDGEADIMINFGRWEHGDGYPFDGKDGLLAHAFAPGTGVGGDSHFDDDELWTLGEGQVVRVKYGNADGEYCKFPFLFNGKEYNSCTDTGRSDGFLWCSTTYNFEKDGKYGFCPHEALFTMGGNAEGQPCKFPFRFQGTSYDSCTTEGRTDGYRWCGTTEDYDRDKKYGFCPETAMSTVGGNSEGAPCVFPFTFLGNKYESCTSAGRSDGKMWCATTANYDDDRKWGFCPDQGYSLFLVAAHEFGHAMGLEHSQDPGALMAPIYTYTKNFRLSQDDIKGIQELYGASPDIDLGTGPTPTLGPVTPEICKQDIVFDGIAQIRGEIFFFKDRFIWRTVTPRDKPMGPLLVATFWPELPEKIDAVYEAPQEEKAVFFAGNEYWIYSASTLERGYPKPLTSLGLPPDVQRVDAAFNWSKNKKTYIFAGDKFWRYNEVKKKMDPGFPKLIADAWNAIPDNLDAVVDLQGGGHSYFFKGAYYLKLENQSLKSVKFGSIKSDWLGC

For `CC[C@H](C)[C@H](NC(=O)[C@H](CCCNC(=N)N)NC(=O)CN)C(=O)NCC(=O)N[C@@H](Cc1ccccc1)C(=O)N[C@@H](CC(C)C)C(=O)N[C@@H](CCCNC(=N)N)C(=O)NC(C(=O)N[C@@H](C)C(=O)N[C@@H](CCCCNC(=O)CCCN(C)c1ccc(/N=N/c2ccc3nc4ccc(N(CC)CC)cc4[n+](-c4ccccc4)c3c2)cc1)C(=O)NCC(=O)NCC(=O)O)[C@@H](C)O` (stereo partly drawn) (H-GRIGFLR[ξThr(3R)]AK(X1)GG-OH), the metabolised at 8 h, 100 µM came out at 26% in data set [1] and 86% in data set [2].
As for `CC[C@H](C)[C@H](NC(=O)[C@H](CCCNC(=N)N)NC(=O)CN)C(=O)NCC(=O)N[C@@H](Cc1ccccc1)C(=O)N[C@@H](CC(C)C)C(=O)N[C@@H](CCCNC(=N)N)C(=O)N[C@H](C(=O)N[C@@H](C)C(=O)N[C@@H](CCCCNC(=O)CCCCCOc1c(/N=N/c2cc(OC)c(/N=N/c3ccc([N+](=O)[O-])cc3)cc2OC)cc2c3c1CCCN3CCC2)C(=O)NCC(=O)NCC(=O)O)[C@@H](C)O`, the metabolised at 8 h, 100 µM in data set [2] is 31%.
Regarding `CC[C@H](C)[C@H](NC(=O)[C@H](CCCNC(=N)N)NC(=O)CNC(=O)c1ccc(-c2c3nc(c(-c4ccccc4)c4ccc([nH]4)c(-c4ccccc4)c4nc(c(-c5ccccc5)c5ccc2[nH]5)C=C4)C=C3)cc1)C(=O)NCC(=O)N[C@@H](Cc1ccccc1)C(=O)N[C@@H](CC(C)C)C(=O)N[C@@H](CCCNC(=N)N)C(=O)N[C@H](C(=O)N[C@@H](C)C(=O)N[C@@H](CCCCNC(=O)CCCN(C)c1ccc(/N=N/c2ccc3nc4ccc(N(CC)CC)cc4[n+](-c4ccccc4)c3c2)cc1)C(=O)NCC(=O)NCC(=O)O)[C@@H](C)O` ({Benzoyl(4-TriPhPorphyrinyl)}-GRIGFLRTAK(X1)GG-OH), the Activity in data set [3] was determined as 80%; in data set [4], 100%.
The like results for `C=Cc1c(C)c2cc3nc(c4c5[nH]c(cc6nc(cc1[nH]2)C(C)=C6CC)c(C)c5C(=O)C4)[C@@H](CCC(=O)NCC(=O)N[C@@H](CCCNC(=N)N)C(=O)N[C@H](C(=O)NCC(=O)N[C@@H](Cc1ccccc1)C(=O)N[C@@H](CC(C)C)C(=O)N[C@@H](CCCNC(=N)N)C(=O)N[C@H](C(=O)N[C@@H](C)C(=O)N[C@@H](CCCCNC(=O)CCCN(C)c1ccc(/N=N/c2ccc4nc5ccc(N(CC)CC)cc5[n+](-c5ccccc5)c4c2)cc1)C(=O)NCC(=O)NCC(=O)O)[C@@H](C)O)[C@@H](C)CC)[C@@H]3C` ({Pyropheophorbide(a)}-GRIGFLRTAK(X1)GG-OH) were, in that order, 93% and 100%.
With `CC[C@H](C)[C@H](NC(=O)[C@H](CCCNC(=N)N)NC(=O)CNC(=O)COCCOCCNC(=O)c1ccc(-c2c3nc(c(-c4ccccc4)c4ccc([nH]4)c(-c4ccccc4)c4nc(c(-c5ccccc5)c5ccc2[nH]5)C=C4)C=C3)cc1)C(=O)NCC(=O)N[C@@H](Cc1ccccc1)C(=O)N[C@@H](CC(C)C)C(=O)N[C@@H](CCCNC(=N)N)C(=O)N[C@H](C(=O)N[C@@H](C)C(=O)N[C@@H](CCCCN)C(=O)NCC(=O)NCC(=O)O)[C@@H](C)O` ({Benzoyl(4-TriPhPorphyrinyl)-AEEA}-GRIGFLRTAKGG-OH), the metabolised at 8 h, 100 µM in data set [5] was found to be 2%; in data set [1] it was 3%.
On to `CC[C@H](C)[C@H](NC(=O)[C@H](CCCNC(=N)N)NC(=O)CNC(=O)COCCOCCN)C(=O)NCC(=O)N[C@@H](Cc1ccccc1)C(=O)N[C@@H](CC(C)C)C(=O)N[C@@H](CCCNC(=N)N)C(=O)N[C@H](C(=O)N[C@@H](C)C(=O)N[C@@H](CCCCN)C(=O)NCC(=O)NCC(=O)O)[C@@H](C)O` (H-[AEEA]GRIGFLRTAKGG-OH), for which the metabolised at 8 h, 100 µM in data set [1] stood at 20%; in data set [2], 100%.
For `CC[C@H](C)[C@H](NC(=O)[C@H](CCCNC(=N)N)NC(=O)CNC(=O)COCCOCCNC(=O)c1ccc(-c2c3nc(c(-c4ccccc4)c4ccc([nH]4)c(-c4ccccc4)c4nc(c(-c5ccccc5)c5ccc2[nH]5)C=C4)C=C3)cc1)C(=O)NCC(=O)N[C@@H](Cc1ccccc1)C(=O)N[C@@H](CC(C)C)C(=O)N[C@@H](CCCNC(=N)N)C(=O)N[C@H](C(=O)N[C@@H](C)C(=O)N[C@@H](CCCCNC(=O)CCCN(C)c1ccc(/N=N/c2ccc3nc4ccc(N(CC)CC)cc4[n+](-c4ccccc4)c3c2)cc1)C(=O)NCC(=O)NCC(=O)O)[C@@H](C)O` ({Benzoyl(4-TriPhPorphyrinyl)-AEEA}-GRIGFLRTAK(X1)GG-OH), the Activity is 80% in data set [3] and 100% in data set [4].
As to `CC[C@H](C)[C@H](NC(=O)[C@H](CCCNC(=N)N)NC(=O)CNC(=O)c1ccc(-c2c3nc(c(-c4ccccc4)c4ccc([nH]4)c(-c4ccccc4)c4nc(c(-c5ccccc5)c5ccc2[nH]5)C=C4)C=C3)cc1)C(=O)NCC(=O)N[C@@H](Cc1ccccc1)C(=O)N[C@@H](CC(C)C)C(=O)N[C@@H](CCCNC(=N)N)C(=O)N[C@H](C(=O)N[C@@H](C)C(=O)N[C@@H](CCCCNC(=O)CCCCCOc1c(/N=N/c2cc(OC)c(/N=N/c3ccc([N+](=O)[O-])cc3)cc2OC)cc2c3c1CCCN3CCC2)C(=O)NCC(=O)NCC(=O)O)[C@@H](C)O` ({Benzoyl(4-TriPhPorphyrinyl)}-GRIGFLRTAK(X2)GG-OH), the Activity in data set [3] stood at 90%; in data set [4] it was 80%. In data set [6], the outcome was Active.
Consider `C=Cc1c(C)c2cc3nc(c4c5[nH]c(cc6nc(cc1[nH]2)C(C)=C6CC)c(C)c5C(=O)C4)[C@@H](CCC(=O)NCC(=O)N[C@@H](CCCNC(=N)N)C(=O)N[C@H](C(=O)NCC(=O)N[C@@H](Cc1ccccc1)C(=O)N[C@@H](CC(C)C)C(=O)N[C@@H](CCCNC(=N)N)C(=O)N[C@H](C(=O)N[C@@H](C)C(=O)N[C@@H](CCCCNC(=O)CCCCCOc1c(/N=N/c2cc(OC)c(/N=N/c4ccc([N+](=O)[O-])cc4)cc2OC)cc2c4c1CCCN4CCC2)C(=O)NCC(=O)NCC(=O)O)[C@@H](C)O)[C@@H](C)CC)[C@@H]3C` ({Pyropheophorbide(a)}-GRIGFLRTAK(X2)GG-OH), for which the Activity is 88% in data set [3] and 77% in data set [4].
Take H-GRIGFLRTAKGG-OH: the metabolised at 8 h, 100 µM stood at 26% in data set [1] and 99% in data set [2].
Consider `C=Cc1c(C)c2cc3nc(c4c5[nH]c(cc6nc(cc1[nH]2)C(C)=C6CC)c(C)c5C(=O)C4)[C@@H](CCC(=O)NCC(=O)N[C@@H](CCCNC(=N)N)C(=O)N[C@H](C(=O)NCC(=O)N[C@@H](Cc1ccccc1)C(=O)N[C@@H](CC(C)C)C(=O)N[C@@H](CCCNC(=N)N)C(=O)N[C@H](C(=O)N[C@@H](C)C(=O)N[C@@H](CCCCN)C(=O)NCC(=O)NCC(=O)O)[C@@H](C)O)[C@@H](C)CC)[C@@H]3C` ({Pyropheophorbide(a)}-GRIGFLRTAKGG-OH), for which the metabolised at 8 h, 100 µM in data set [5] turned out to be 5%.
